Experimental data as given in patent US12696901B2, “Pesticidally active heterocyclic derivatives with sulfur containing substituents” (SYNGENTA CROP PROTECTION AG, priority 2020, dated 2026).

Assays:
Assay type in all cases: in vivo
[1] = system: Diabrotica balteata (Corn Root Worm); test: Activity against Diabrotica balteata (corn root worm), corn seedlings on filter paper in cups; details: 120 h, application rate 3 ppm, L2 larva, 5 days after treatment, read-out: effect in at least one of the two categories (mortality or growth inhibition)
Protocol: Example B12: Activity Against Diabrotica Balteata (Corn Root Worm)
Three corn seedlings were placed on wetted filter paper in plastic cups, and 3 ml of diluted test solutions were pipetted onto them. The cups were infested with 10 L2 larva and checked for mortality and growth regulation 5 days after treatment.

[2] = system: Bemisia tabaci (Cotton White Fly); test: Activity against Bemisia tabaci (cotton white fly), sprayed cotton leaf discs; details: foliar, 144 h, application rate 200 ppm, adult white flies, 6 days after incubation
Protocol: Example B1: Activity Against Bemisia tabaci (Cotton White Fly)
Cotton leaf discs were placed on agar in 24-well microtiter plates and sprayed with aqueous test solutions prepared from 10,000 ppm DMSO stock solutions. After drying the leaf discs were infested with adult white flies. The samples were checked for mortality 6 days after incubation.

[3] = system: Carpocapsa (Cydia) Pomonella (Codling Moth); test: Activity against Carpocapsa (Cydia) pomonella (codling moth), sprayed diet cubes; details: 336 h, application rate 12.5 ppm, L1 larvae, 14 days after infestation, read-out: effect in at least one of the two categories (mortality or growth inhibition)
Protocol: Example B11: Activity Against Carpocapsa (Cydia) Pomonella (Codling Moth)
Diet cubes coated with paraffin were sprayed with diluted test solutions in an application chamber. After drying off the treated cubes (10 replicates) were infested with 1 L1 larvae. Samples were incubated at 26-27° C. and checked 14 days after infestation for mortality and growth inhibition. The following compounds gave an effect of at least 80% in at least one of the two categories (mortality or growth inhibition) at an application rate of 12.5 ppm: P1, P2, P3, P4, P5, P6, P10, P11, P12, P14, P15, P16, P17, P19, P20, P21, P22, P24, P27, P29, P30, P33, P34, P35.

[4] = system: Myzus persicae (Green Peach Aphid); test: Activity against Myzus persicae (green peach aphid), feeding/contact activity; details: 144 h, application rate 200 ppm, mixed ages, 6 days after infestation
Protocol: Example B6: Activity Against Myzus persicae (Green Peach Aphid) Feeding/Contact Activity
(§1) Sunflower leaf discs were placed onto agar in a 24-well microtiter plate and sprayed with aqueous test solutions prepared from 10,000 ppm DMSO stock solutions. After drying, the leaf discs were infested with an aphid population of mixed ages. The samples were assessed for mortality 6 days after infestation.

[5] = system: Euschistus heros (Neotropical Brown Stink Bug); test: Activity against Euschistus heros (neotropical brown stink bug), sprayed soybean leaves; details: 120 h, application rate 200 ppm, N2 nymphs, 5 days after infestation, read-out: effect in at least one of the two categories (mortality or growth inhibition)
Protocol: Example B3: Activity Against Euschistus heros (Neotropical Brown Stink Bug)
Soybean leaves on agar in 24-well microtiter plates were sprayed with aqueous test solutions prepared from 10,000 ppm DMSO stock solutions. After drying the leaves were infested with N2 nymphs. The samples were assessed for mortality and growth inhibition in comparison to untreated samples 5 days after infestation.

[6] = system: Plutella xylostella (Diamond Back Moth); test: Activity against Plutella xylostella (diamond back moth), treated artificial diet; details: 192 h, application rate 200 ppm, eggs, 8 days after infestation, read-out: effect in at least one of the two categories (mortality or growth inhibition)
Protocol: Example B5: Activity Against Plutella xylostella (Diamond Back Moth)
24-well microtiter plates with artificial diet were treated with aqueous test solutions prepared from 10,000 ppm DMSO stock solutions by pipetting. After drying, Plutella eggs were pipetted through a plastic stencil onto a gel blotting paper and the plate was closed with it. The samples were assessed for mortality and growth inhibition in comparison to untreated samples 8 days after infestation.

[7] = system: Diabrotica balteata (Corn Root Worm); test: Activity against Diabrotica balteata (corn root worm), sprayed maize sprouts on agar; details: 96 h, application rate 200 ppm, L2 larvae, 4 days after infestation, read-out: effect in at least one of the two categories (mortality or growth inhibition)
Protocol: Example B2: Activity Against Diabrotica balteata (Corn Root Worm)
Maize sprouts placed onto an agar layer in 24-well microtiter plates were treated with aqueous test solutions prepared from 10,000 ppm DMSO stock solutions by spraying. After drying, the plates were infested with L2 larvae (6 to 10 per well). The samples were assessed for mortality and growth inhibition in comparison to untreated samples 4 days after infestation.

[8] = system: Spodoptera littoralis (Egyptian Cotton Leaf Worm); test: Activity against Spodoptera littoralis (Egyptian cotton leaf worm), sprayed cotton leaf discs; details: foliar, 72 h, application rate 200 ppm, L1 larvae, 3 days after infestation
Protocol: Example B7: Activity Against Spodoptera littoralis (Egyptian Cotton Leaf Worm)
Cotton leaf discs were placed onto agar in 24-well microtiter plates and sprayed with aqueous test solutions prepared from 10,000 ppm DMSO stock solutions. After drying the leaf discs were infested with five L1 larvae. The samples were assessed for mortality, anti-feeding effect, and growth inhibition in comparison to untreated samples 3 days after infestation. Control of Spodoptera littoralis by a test sample is given when at least one of the categories mortality, anti-feedant effect, and growth inhibition is higher than the untreated sample.

[9] = system: Frankliniella occidentalis (Western Flower Thrips); test: Activity against Frankliniella occidentalis (western flower thrips), sprayed sunflower leaf discs; details: foliar, 168 h, application rate 200 ppm, population of mixed ages, 7 days after infestation
Protocol: Example B4: Activity Against Frankliniella occidentalis (Western Flower Thrips)
as §1, with “on” for “onto”, “in” for “in a”, “plates” for “plate”, “drying” for “drying,”, “a Frankliniella” for “an aphid”, “7” for “6”

[10] = system: Chilo suppressalis (Striped Rice Stemborer); test: Activity against Chilo suppressalis (striped rice stemborer), treated artificial diet; details: 144 h, application rate 200 ppm, L2 larvae, 6 days after infestation
Protocol: Example B10: Activity Against Chilo suppressalis (Striped Rice Stemborer)
24-well microtiter plates with artificial diet were treated with aqueous test solutions prepared from 10,000 ppm DMSO stock solutions by pipetting. After drying, the plates were infested with L2 larvae (6-8 per well). The samples were assessed for mortality, anti-feeding effect, and growth inhibition in comparison to untreated samples 6 days after infestation. Control of Chilo suppressalis by a test sample is given when at least one of the categories mortality, anti-feedant effect, and growth inhibition is higher than the untreated sample.

CCS(=O)(=O)c1c(N2Cc3cnc(C(F)(F)F)cc3C2=O)sc2cc(C(F)(F)F)ccc12 [Compound P1, 2-[3-ethylsulfonyl-6-(trifluoromethyl)benzothiophen-2-yl]-6-(trifluoromethyl)-3H-pyrrolo[3,4-c]pyridin-1-one]
≥ 80%: percent effect (mortality or growth inhibition) at 3 ppm [1] | mortality at 200 ppm [2] | percent effect (mortality or growth inhibition) at 12.5 ppm [3] | mortality at 200 ppm [4] | percent effect (mortality or growth inhibition) at 200 ppm [5] | percent effect (mortality or growth inhibition) at 200 ppm [6] | percent effect (mortality or growth inhibition) at 200 ppm [7] | percent control (mortality, anti-feedant effect or growth inhibition) at 200 ppm [8]

CCS(=O)(=O)c1c(N2Cc3ncc(C(F)(F)F)cc3C2=O)nc2cc(C3(C#N)CC3)ccn12 [Compound P3, 1-[3-ethylsulfonyl-2-[5-oxo-3-(trifluoromethyl)-7H-pyrrolo[3,4-b]pyridin-6-yl]imidazo [1,2-a]pyridin-7-yl] cyclopropane-carbonitrile]
≥ 80%: percent effect (mortality or growth inhibition) at 3 ppm [1] | mortality at 200 ppm [2] | percent effect (mortality or growth inhibition) at 12.5 ppm [3] | mortality at 200 ppm [4] | percent effect (mortality or growth inhibition) at 200 ppm [5] | percent effect (mortality or growth inhibition) at 200 ppm [6] | percent effect (mortality or growth inhibition) at 200 ppm [7] | percent control (mortality, anti-feedant effect or growth inhibition) at 200 ppm [8] | mortality at 200 ppm [9]

CCS(=O)(=O)c1c(N2Cc3ncc(C(F)(F)F)cc3C2=O)nc2ccc(C(F)(F)F)cn12 [Compound P4, 6-[3-ethylsulfonyl-6-(trifluoromethyl)imidazo[1,2-a]pyridin-2-yl]-3-(trifluoromethyl)-7H-pyrrolo[3,4-b] pyridin-5-one]
≥ 80%: percent effect (mortality or growth inhibition) at 3 ppm [1] | mortality at 200 ppm [2] | percent effect (mortality or growth inhibition) at 12.5 ppm [3] | mortality at 200 ppm [4] | percent effect (mortality or growth inhibition) at 200 ppm [5] | percent effect (mortality or growth inhibition) at 200 ppm [6] | percent effect (mortality or growth inhibition) at 200 ppm [7] | percent control (mortality, anti-feedant effect or growth inhibition) at 200 ppm [8]

CCS(=O)(=O)c1c(N2Cc3ccc(OC(F)(F)F)cc3C2=O)nc2ccc(C(F)(F)F)cn12 [Compound P6, 2-[3-ethylsulfonyl-6-(trifluoromethyl)imidazo[1,2-a]pyridin-2-yl]-6-(trifluoromethoxy) isoindolin-1-one]
≥ 80%: percent effect (mortality or growth inhibition) at 3 ppm [1] | mortality at 200 ppm [2] | percent effect (mortality or growth inhibition) at 12.5 ppm [3] | mortality at 200 ppm [4] | percent effect (mortality or growth inhibition) at 200 ppm [5] | percent effect (mortality or growth inhibition) at 200 ppm [6] | percent effect (mortality or growth inhibition) at 200 ppm [7] | percent control (mortality, anti-feedant effect or growth inhibition) at 200 ppm [8]

CCS(=O)(=O)c1c(N2Cc3ncc(C(F)(F)F)cc3C2=O)nc2ccc(OC(C)(C)C#N)cn12 [Compound P20, 2-[3-ethylsulfonyl-2-[5-oxo-3-(trifluoromethyl)-7H-pyrrolo[3,4-b]pyridin-6-yl]imidazo [1,2-a]pyridin-6-yl] oxy-2-methyl-propanenitrile]
≥ 80%: percent effect (mortality or growth inhibition) at 3 ppm [1] | mortality at 200 ppm [2] | percent effect (mortality or growth inhibition) at 12.5 ppm [3] | mortality at 200 ppm [4] | percent effect (mortality or growth inhibition) at 200 ppm [6] | percent effect (mortality or growth inhibition) at 200 ppm [7] | percent control (mortality, anti-feedant effect or growth inhibition) at 200 ppm [8] | percent control (mortality, anti-feedant effect or growth inhibition) at 200 ppm [10]

CCS(=O)(=O)c1c(N2Cc3ncc(C(F)(F)F)cc3C2=O)nc2ccc(C3CC3)cn12 [Compound P27, 6-(6-cyclopropyl-3-ethylsulfonyl-imidazo [1,2-a]pyridin-2-yl)-3-(trifluoromethyl)-7H-pyrrolo[3,4-b]pyridin-5-one]
≥ 80%: percent effect (mortality or growth inhibition) at 3 ppm [1] | percent effect (mortality or growth inhibition) at 12.5 ppm [3] | mortality at 200 ppm [4] | percent effect (mortality or growth inhibition) at 200 ppm [5] | percent effect (mortality or growth inhibition) at 200 ppm [6] | percent effect (mortality or growth inhibition) at 200 ppm [7] | percent control (mortality, anti-feedant effect or growth inhibition) at 200 ppm [8] | percent control (mortality, anti-feedant effect or growth inhibition) at 200 ppm [10] | mortality at 200 ppm [9]
